{"source": "patent EP0612525B1", "about": "“Transdermal treatment with mast cell degranulating agents for drug-induced hypersensitivity” (BRISTOL-MYERS SQUIBB COMPANY, priority 1993, dated 1994)", "key": {"BALB/c female mice": {"tested_on": "BALB/c female mice", "assay": "Contact hypersensitivity, TNBS sensitization / TNCB ear challenge (ear swelling)", "assay_type": "in vivo", "settings": "for % SUPPRESSION: TNBS 2.45 mg"}, "dermal mast cells": {"tested_on": "dermal mast cells", "assay": "Chymase depletion from mast cells in skin organ cultures (immunohistochemical staining)", "assay_type": "cell-based", "settings": "5 mM in culture medium, positive control", "experimental": "Chymase is a proteolytic enzyme with chymotrypsin activity that is released from dermal mast cells upon degranulation. The enzyme has been implicated in proteolytic breakdown of endothelial cell basement membrane matrix proteins and to thereby facilitate leukocyte diapedesis. The release of chymase from mast cells was detected as a depletion of chymase-specific immunohistochemical staining observed in cryosections of the dermis in skin organ cultures. As a positive control 5 mM of morphine sulfate (MSO4 + ctrl) was added to the culture medium bathing the skin organ cultures. The negative control was untreated culture medium (SCM-ctrl). Cis-urocanic acid was added to the culture medium at 1 µg/ml and 10 µg/ml."}}, "data": [{"smiles": "O=C(O)c1cc(=O)c2c(OCC(O)COc3cccc4oc(C(=O)O)cc(=O)c34)cccc2o1", "note": "[sodium cromolyn, reference compound]", "values": [{"measurement": "suppression of contact sensitization (in words)", "setting": "BALB/c female mice; 20 µg intradermally", "value": "failed to suppress contact sensitization"}, {"measurement": "enhancement in the contact sensitivity response", "setting": "BALB/c female mice; 20 µg intradermally, 24 and 48 hours together", "value": "14-17%"}, {"measurement": "% SUPPRESSION", "setting": "BALB/c female mice; 20 µg intradermally, 24 Hours", "value": "+14.1%"}, {"measurement": "% SUPPRESSION", "setting": "BALB/c female mice; 20 µg intradermally, 48 Hours", "value": "+17.0%"}]}, {"smiles": "CCN(CC)CCCC(C)Nc1ccnc2cc(Cl)ccc12", "note": "(stereo not shown) [chloroquine, Chloroquine, reference compound]", "values": [{"measurement": "% SUPPRESSION", "setting": "BALB/c female mice; 200 µg intradermally, 24 Hours", "value": 39.6, "unit": "%"}, {"measurement": "% SUPPRESSION", "setting": "BALB/c female mice; 200 µg intradermally, 48 Hours", "value": 46.5, "unit": "%"}]}, {"smiles": "CN1CC[C@]23c4c5ccc(O)c4O[C@H]2[C@@H](O)C=C[C@H]3[C@H]1C5.O=S(=O)(O)O", "note": "[morphine sulfate, reference compound]", "values": [{"measurement": "chymase positive mast cell per mm^2", "setting": "dermal mast cells", "value": "37 ± 15", "unit": "per mm^2"}]}]}
